Laboratory results taken from US12459922B2 (Gilead Sciences, Inc., priority 2022, dated 2025).

Tested on: endogenous cellular STAT1 (phosphorylated at Tyr701) in NCI-H1373 cells
Assay: Phospho-STAT1 (Tyr701) LANCE Ultra TR-FRET Detection Assay
Type: cell-based
Settings: Homo sapiens, NCI-H1373, 48 h, phospho-STAT1 (Tyr701) induction, read-out: NH1373 pSTAT1 EC50

Point of comparison: Cc1cn(C[C@@H]2CCC[C@H](Nc3cn[nH]c(=O)c3C(F)(F)F)C2)c(=O)c2cc(F)c(-c3ncc(C(F)(F)F)cn3)cc12 [Example 485, 7-fluoro-4-methyl-2-(((1R,3S)-3-((6-oxo-5-(trifluoromethyl)-1,6-dihydropyridazin-4-yl)amino)cyclohexyl)methyl)-6-(5-(trifluoromethyl)pyrimidin-2-yl)isoquinolin-1(2H)-one], EC50 5.46 nM. Against it:
- C[C@@H](CCCn1ccc2cc(-c3ncc(C(F)(F)F)cc3C#N)c(F)cc2c1=O)Nc1cn[nH]c(=O)c1C(F)(F)F [Example 289, (S)-2-(7-fluoro-1-oxo-2-(4-((6-oxo-5-(trifluoromethyl)-1,6-dihydropyridazin-4-yl)amino)pentyl)-1,2-dihydroisoquinolin-6-yl)-5-(trifluoromethyl)nicotinonitrile] — 20-fold higher, 108 nM
- COc1cnc(-c2cc3ccn(CCCC4CCN4c4cn[nH]c(=O)c4C(F)(F)F)c(=O)c3cc2F)nc1N (stereo not shown) [Example 153, 6-(4-amino-5-methoxy-pyrimidin-2-yl)-7-fluoro-2-[3-[1-[6-oxo-5-(trifluoromethyl)-1H-pyridazin-4-yl]azetidin-2-yl]propyl]isoquinolin-1-one] — 2-fold higher, 10.9 nM
- C[C@@H](CCCn1ccc2cc(-c3ccc(C(F)(F)CO)cn3)c(F)cc2c1=O)Nc1cn[nH]c(=O)c1C(F)(F)F [Example 75, 6-[5-(1,1-difluoro-2-hydroxy-ethyl)-2-pyridyl]-7-fluoro-2-[(4S)-4-[[6-oxo-5-(trifluoromethyl)-1H-pyridazin-4-yl]amino]pentyl]isoquinolin-1-one] — 9.9-fold higher, 54.2 nM
- C[C@@H](CCCn1cnc2cc(-c3ncc(C(F)F)c(N)n3)c(F)cc2c1=O)Nc1cn[nH]c(=O)c1C(F)(F)F [Example 108, 7-[4-amino-5-(difluoromethyl)pyrimidin-2-yl]-6-fluoro-3-[(4S)-4-[[6-oxo-5-(trifluoromethyl)-1H-pyridazin-4-yl]amino]pentyl]quinazolin-4-one] — 5.4-fold higher, 29.4 nM
- C[C@@H](CCCn1ccc2cc(-c3cn4ccnc4c(N)n3)c(F)cc2c1=O)Nc1cn[nH]c(=O)c1C(F)(F)F [Example 332, (S)-6-(8-aminoimidazo[1,2-a]pyrazin-6-yl)-7-fluoro-2-(4-((6-oxo-5-(trifluoromethyl)-1,6-dihydropyridazin-4-yl)amino)pentyl)isoquinolin-1(2H)-one] — 1.6-fold higher, 8.92 nM
- C[C@@H](CCCn1ccc2cc(-c3ncc(N4CC5(COC5)C4)cn3)c(F)cc2c1=O)Nc1cn[nH]c(=O)c1C(F)(F)F [Example 99, (S)-6-(5-(2-oxa-6-azaspiro[3.3]heptan-6-yl)pyrimidin-2-yl)-7-fluoro-2-(4-((6-oxo-5-(trifluoromethyl)-1,6-dihydropyridazin-4-yl)amino)pentyl)isoquinolin-1(2H)-one] — 230-fold higher, 1280 nM
- O=c1[nH]ncc(N2Cc3ccccc3[C@H]2CCCn2ccc3cc(-c4ncc(C(F)(F)F)cn4)c(F)cc3c2=O)c1C(F)(F)F [Example 182, 7-fluoro-2-[3-[(1R)-2-[6-oxo-5-(trifluoromethyl)-1H-pyridazin-4-yl]isoindolin-1-yl]propyl]-6-[5-(trifluoromethyl)pyrimidin-2-yl]isoquinolin-1-one] — 15-fold higher, 82.5 nM
- C[C@@H](CCCn1cnc2cc(-c3nc(N)c4ccccc4n3)c(F)cc2c1=O)Nc1cn[nH]c(=O)c1C(F)(F)F [Example 354, (S)-4-amino-6'-fluoro-3'-(4-((6-oxo-5-(trifluoromethyl)-1,6-dihydropyridazin-4-yl)amino)pentyl)-[2,7'-biquinazolin]-4'(3'H)-one] — 12-fold higher, 65.1 nM
- CCNc1nc(-c2cc3ccn(CCC[C@H](C)Nc4cn[nH]c(=O)c4C(F)(F)F)c(=O)c3cc2F)ncc1OC [Example 215, (S)-6-(4-(ethylamino)-5-methoxypyrimidin-2-yl)-7-fluoro-2-(4-((6-oxo-5-(trifluoromethyl)-1,6-dihydropyridazin-4-yl)amino)pentyl)isoquinolin-1(2H)-one] — 6.6-fold higher, 36.1 nM
